Experimental data as given in ChEMBL document CHEMBL1144647, “Additional interaction of allophenylnorstatine-containing tripeptidomimetics with malarial aspartic protease plasmepsin II” (Bioorg Med Chem Lett, 2007).

Columns and labels:
Plasmepsin II = Plasmepsin II (Plasmodium falciparum, UniProt P46925); assay: Inhibition of Plasmodium falciparum plasmepsin-2
Plasmodium falciparum = assay: Antimicrobial activity against Plasmodium falciparum in erythrocytes; type: functional, organism-based
[1] = tested on: Human immunodeficiency virus 1; assay: Inhibition of HIV1 protease at 50 nM
[2] = Selectivity for Plasmodium falciparum plasmepsin-2 over human cathepsin D

Sequence of Plasmepsin II (P46925 whole entry): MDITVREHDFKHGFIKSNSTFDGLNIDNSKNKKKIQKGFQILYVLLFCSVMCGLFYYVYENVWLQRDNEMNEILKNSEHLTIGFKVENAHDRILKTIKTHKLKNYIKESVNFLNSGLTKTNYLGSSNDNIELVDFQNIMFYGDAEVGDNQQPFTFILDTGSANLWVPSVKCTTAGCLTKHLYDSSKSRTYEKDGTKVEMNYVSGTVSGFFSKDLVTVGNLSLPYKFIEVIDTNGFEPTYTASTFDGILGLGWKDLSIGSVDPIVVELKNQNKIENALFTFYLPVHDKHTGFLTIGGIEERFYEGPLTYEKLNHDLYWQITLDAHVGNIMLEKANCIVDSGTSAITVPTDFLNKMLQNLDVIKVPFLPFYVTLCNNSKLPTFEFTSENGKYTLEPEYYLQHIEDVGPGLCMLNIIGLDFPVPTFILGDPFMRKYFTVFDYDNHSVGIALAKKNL

Compound | Ki (Plasmepsin II) | EC50 (Plasmodium falciparum) | inhibition [1] | Ratio [2]
CSC[C@H](NC(=O)Cc1ccccc1C)C(=O)N[C@@H](Cc1ccccc1)[C@H](O)C(=O)N1CSC(C)(C)[C@H]1C(=O)N[C@H]1c2ccccc2C[C@H]1O | 0.2 nM | 4700 nM | 83% | 
COc1ccc(CC(=O)N[C@@H](CSC)C(=O)N[C@@H](Cc2ccccc2)[C@H](O)C(=O)N2CSC(C)(C)[C@H]2C(=O)N[C@H]2c3ccccc3C[C@H]2O)cc1 | 4 nM |  | 91% | 
CSC[C@H](NC(=O)Cc1ccc(C)cc1)C(=O)N[C@@H](Cc1ccccc1)[C@H](O)C(=O)N1CSC(C)(C)[C@H]1C(=O)N[C@H]1c2ccccc2C[C@H]1O | 5 nM |  | 88% | 
CSC[C@H](NC(=O)COc1cccc(Nc2ccccc2)c1)C(=O)N[C@@H](Cc1ccccc1)[C@H](O)C(=O)N1CSC(C)(C)[C@H]1C(=O)N[C@H]1c2ccccc2C[C@H]1O | 15 nM |  | 98% | 
CSC[C@H](NC(=O)Cc1ccccc1O)C(=O)N[C@@H](Cc1ccccc1)[C@H](O)C(=O)N1CSC(C)(C)[C@H]1C(=O)N[C@H]1c2ccccc2C[C@H]1O | 16 nM |  | 86% | 
CSC[C@H](NC(=O)COc1cccc2cnccc12)C(=O)N[C@@H](Cc1ccccc1)[C@H](O)C(=O)N1CSC(C)(C)[C@H]1C(=O)NC(C)(C)C | 36 nM |  |  | 50
CSC[C@H](NC(=O)Cc1cccc(N)c1)C(=O)N[C@@H](Cc1ccccc1)[C@H](O)C(=O)N1CSC(C)(C)[C@H]1C(=O)N[C@H]1c2ccccc2C[C@H]1O | 12 nM |  | 76% | 
CSC[C@H](NC(=O)OC1CCCCC1)C(=O)N[C@@H](Cc1ccccc1)[C@H](O)C(=O)N1CSC(C)(C)[C@H]1C(=O)N[C@H]1c2ccccc2C[C@H]1O | 5 nM |  | 56% | 
CSC[C@H](NC(=O)Cc1ccc(N)cc1)C(=O)N[C@@H](Cc1ccccc1)[C@H](O)C(=O)N1CSC(C)(C)[C@H]1C(=O)N[C@H]1c2ccccc2C[C@H]1O | ≤ 0.1 nM |  | 68% | 
CSC[C@H](NC(=O)c1cc(=O)c2ccccc2o1)C(=O)N[C@@H](Cc1ccccc1)[C@H](O)C(=O)N1CSC(C)(C)[C@H]1C(=O)N[C@H]1c2ccccc2C[C@H]1O | 9 nM |  | 99% | 
CSC[C@H](NC(=O)Cc1cccc(O)c1)C(=O)N[C@@H](Cc1ccccc1)[C@H](O)C(=O)N1CSC(C)(C)[C@H]1C(=O)N[C@H]1c2ccccc2C[C@H]1O | 4 nM |  | 84% | 
CSC[C@H](NC(=O)Cc1ccc(O)cc1)C(=O)N[C@@H](Cc1ccccc1)[C@H](O)C(=O)N1CSC(C)(C)[C@H]1C(=O)N[C@H]1c2ccccc2C[C@H]1O | ≤ 0.1 nM |  | 88% | 
COc1ccccc1CC(=O)N[C@@H](CSC)C(=O)N[C@@H](Cc1ccccc1)[C@H](O)C(=O)N1CSC(C)(C)[C@H]1C(=O)N[C@H]1c2ccccc2C[C@H]1O | 9 nM |  | 81% | 
CSC[C@H](NC(=O)Cc1cccc(C)c1)C(=O)N[C@@H](Cc1ccccc1)[C@H](O)C(=O)N1CSC(C)(C)[C@H]1C(=O)N[C@H]1c2ccccc2C[C@H]1O | 18 nM |  | 87% | 
CSC[C@H](NC(=O)Cc1ccccc1N)C(=O)N[C@@H](Cc1ccccc1)[C@H](O)C(=O)N1CSC(C)(C)[C@H]1C(=O)N[C@H]1c2ccccc2C[C@H]1O | 4 nM |  | 86% | 
Cc1cccc(C)c1OCC(=O)N[C@@H](Cc1ccccc1)[C@H](O)C(=O)N1CSC(C)(C)[C@H]1C(=O)N[C@H]1c2ccccc2C[C@H]1O | 0.5 nM | 6800 nM |  | 
COc1cccc(CC(=O)N[C@@H](CSC)C(=O)N[C@@H](Cc2ccccc2)[C@H](O)C(=O)N2CSC(C)(C)[C@H]2C(=O)N[C@H]2c3ccccc3C[C@H]2O)c1 | 17 nM |  | 88% | 
CSC[C@H](NC(=O)COc1cccc2cnccc12)C(=O)N[C@@H](Cc1ccccc1)[C@H](O)C(=O)N1CSC(C)(C)[C@H]1C(=O)N[C@H]1c2ccccc2C[C@H]1O | 3 nM | 3100 nM | 99% | 
CSC[C@H](NC(=O)COc1cccc2cnccc12)C(=O)N[C@@H](Cc1ccccc1)[C@H](O)C(=O)N1CSC[C@H]1C(=O)NC(C)(C)C | 1000 nM |  |  | 
CSC[C@H](NC(=O)Cc1ccccc1)C(=O)N[C@@H](Cc1ccccc1)[C@H](O)C(=O)N1CSC(C)(C)[C@H]1C(=O)N[C@H]1c2ccccc2C[C@H]1O | ≤ 0.1 nM |  | 85% | 
